target: T1, Recombinant human KIF18A (1-467 His-tagged) (Homo sapiens, UniProt Q8NI77); assay: KIF18A Enzyme Assay: microtubule-stimulated ATPase activity (ADP-Glo); format: biochemical; details: 30 nM KIF18A, 30 μg/mL pig microtubules, ATP 75 μM (Km), ADP-Glo luminescence
T1 construct: Recombinant human KIF18A (1-467 His-tagged) protein; His
Experimental: KIF18A Enzyme Assay: Microtubule-stimulated ATPase activity assay is used to measure KIF18A enzyme activity after treatment with compound. Compounds were 2-fold serially diluted in DMSO (Sigma Inc) over 22-point concentration range. […] The assay measures ADP formed from the ATPase reaction. […] Read luminescence using EnVision microplate reader with ultra-luminescence module (Perkin Elmer Inc). Concentration-response curve-fitting and IC50 determination was performed using Genedata Screener Software (Standard 15.0.1, Genedata Inc) with a four-parameter logistic regression fit model.

T1 sequence (Q8NI77 1-467): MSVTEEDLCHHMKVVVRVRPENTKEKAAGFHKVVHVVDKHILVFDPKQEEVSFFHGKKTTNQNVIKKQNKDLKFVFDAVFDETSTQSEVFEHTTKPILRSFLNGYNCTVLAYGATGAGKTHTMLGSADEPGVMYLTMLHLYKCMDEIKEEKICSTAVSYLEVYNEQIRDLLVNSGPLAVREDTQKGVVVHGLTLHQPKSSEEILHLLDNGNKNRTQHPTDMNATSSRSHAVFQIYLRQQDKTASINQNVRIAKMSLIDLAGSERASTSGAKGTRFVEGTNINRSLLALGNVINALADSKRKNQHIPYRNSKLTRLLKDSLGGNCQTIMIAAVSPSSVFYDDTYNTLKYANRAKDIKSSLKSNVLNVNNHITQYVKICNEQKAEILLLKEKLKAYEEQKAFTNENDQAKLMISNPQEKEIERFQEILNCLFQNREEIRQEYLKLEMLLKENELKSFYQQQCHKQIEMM
T1 sequence (P02550 whole entry partner): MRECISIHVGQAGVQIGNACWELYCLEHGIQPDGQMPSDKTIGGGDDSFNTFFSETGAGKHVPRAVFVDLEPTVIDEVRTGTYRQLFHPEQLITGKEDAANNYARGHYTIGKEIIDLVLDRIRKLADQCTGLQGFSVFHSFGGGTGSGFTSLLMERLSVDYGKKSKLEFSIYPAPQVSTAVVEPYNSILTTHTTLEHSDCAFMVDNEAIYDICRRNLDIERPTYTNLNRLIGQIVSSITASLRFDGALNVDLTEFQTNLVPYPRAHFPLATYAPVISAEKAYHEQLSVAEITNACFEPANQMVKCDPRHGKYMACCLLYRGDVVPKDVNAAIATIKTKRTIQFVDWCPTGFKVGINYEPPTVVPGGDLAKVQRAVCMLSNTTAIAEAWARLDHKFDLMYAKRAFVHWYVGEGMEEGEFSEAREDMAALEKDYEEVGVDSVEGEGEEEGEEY
T1 sequence (P02554 whole entry partner): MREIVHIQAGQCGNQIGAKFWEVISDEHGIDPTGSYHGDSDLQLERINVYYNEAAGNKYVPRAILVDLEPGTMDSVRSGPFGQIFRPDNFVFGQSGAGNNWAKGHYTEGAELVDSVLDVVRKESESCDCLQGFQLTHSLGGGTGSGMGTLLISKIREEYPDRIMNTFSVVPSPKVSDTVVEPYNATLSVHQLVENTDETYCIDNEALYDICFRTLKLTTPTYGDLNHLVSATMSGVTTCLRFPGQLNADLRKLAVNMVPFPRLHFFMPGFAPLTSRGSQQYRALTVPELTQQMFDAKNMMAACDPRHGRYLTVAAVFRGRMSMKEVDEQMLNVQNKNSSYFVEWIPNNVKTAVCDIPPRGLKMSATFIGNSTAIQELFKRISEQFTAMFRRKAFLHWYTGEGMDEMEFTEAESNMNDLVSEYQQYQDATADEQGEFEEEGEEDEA

Row | Structure (SMILES) | IC50 [nM]
1 | C[C@H](CO)S(=O)(=O)Nc1ccc(C(=O)Nc2cccc(OCCC(F)(F)F)n2)c(N2CCC3(CC2)CC3)c1 (single isomer, unassigned) [Example 8-1] | 16
2 | C[C@@H](CO)S(=O)(=O)Nc1ccc(C(=O)Nc2cccc(OCCC(F)(F)F)n2)c(N2CCC3(CC2)CC3)c1 (single isomer, unassigned) [Example 8-2] | 14
3 | C[C@H](CO)S(=O)(=O)Nc1ccc(C(=O)Nc2cccc(N3CC(F)C3)n2)c(N2CCC3(CC2)CC3)c1 (single isomer, unassigned) [Example 9-1] | 33
4 | C[C@@H](CO)S(=O)(=O)Nc1ccc(C(=O)Nc2cccc(N3CC(F)C3)n2)c(N2CCC3(CC2)CC3)c1 (single isomer, unassigned) [Example 9-2] | 47.2
5 | C[C@H](CO)S(=O)(=O)Nc1ccc(C(=O)Nc2cccc(N3CC(F)(F)C3)n2)c(N2CCC3(CC2)CC3)c1 (single isomer, unassigned) [Example 9-3] | 25
6 | C[C@@H](CO)S(=O)(=O)Nc1ccc(C(=O)Nc2cccc(N3CC(F)(F)C3)n2)c(N2CCC3(CC2)CC3)c1 (single isomer, unassigned) [Example 9-4] | 68
7 | Cc1cc(NC(=O)c2ccc(NS(=O)(=O)[C@H](C)CO)cc2N2CCC3(CC2)CC3)nc(N2CC(F)(F)C2)c1 (single isomer, unassigned) [Example 9-5] | 17
8 | Cc1cc(NC(=O)c2ccc(NS(=O)(=O)[C@@H](C)CO)cc2N2CCC3(CC2)CC3)nc(N2CC(F)(F)C2)c1 (single isomer, unassigned) [Example 9-6] | 57
9 | Cc1cc(NC(=O)c2ccc(NS(=O)(=O)[C@@H](C)CO)cc2N2CCC3(CC2)CC3)nc(N2CCC(F)(F)CC2)c1 (single isomer, unassigned) [Example 9-7] | 27
10 | Cc1cc(NC(=O)c2ccc(NS(=O)(=O)[C@H](C)CO)cc2N2CCC3(CC2)CC3)nc(N2CCC(F)(F)CC2)c1 (single isomer, unassigned) [Example 9-8] | 38
11 | C[C@@H](CO)S(=O)(=O)Nc1ccc(C(=O)Nc2cccc(N3CCC(F)(F)CC3)n2)c(N2CCC3(CC2)CC3)c1 (single isomer, unassigned) [Example 9-9] | 41
12 | C[C@H](CO)S(=O)(=O)Nc1ccc(C(=O)Nc2cccc(N3CCC(F)(F)CC3)n2)c(N2CCC3(CC2)CC3)c1 (single isomer, unassigned) [Example 9-10] | 37
13 | Cc1cc(NC(=O)c2ccc(NS(=O)(=O)[C@H](C)CO)cc2N2CCC3(CC2)CC3)nc(N2CCO[C@H](C)C2)c1 (single isomer, unassigned) [Example 9-11] | 38
14 | Cc1cc(NC(=O)c2ccc(NS(=O)(=O)[C@@H](C)CO)cc2N2CCC3(CC2)CC3)nc(N2CCO[C@H](C)C2)c1 (single isomer, unassigned) [Example 9-12] | 39
15 | Cc1cc(NC(=O)c2ccc(NS(=O)(=O)[C@H](C)CO)cc2N2CCC3(CC2)CC3)nc(N2CCOCC2)c1 (single isomer, unassigned) [Example 9-13] | 18
16 | Cc1cc(NC(=O)c2ccc(NS(=O)(=O)[C@@H](C)CO)cc2N2CCC3(CC2)CC3)nc(N2CCOCC2)c1 (single isomer, unassigned) [Example 9-14] | 18
17 | C[C@@H]1CN(c2cccc(NC(=O)c3ccc(NS(=O)(=O)[C@H](C)CO)cc3N3CCC4(CC3)CC4)n2)CCO1 (single isomer, unassigned) [Example 9-15] | 37
18 | C[C@@H]1CN(c2cccc(NC(=O)c3ccc(NS(=O)(=O)[C@@H](C)CO)cc3N3CCC4(CC3)CC4)n2)CCO1 (single isomer, unassigned) [Example 9-16] | 48
19 | C[C@H](CO)S(=O)(=O)Nc1ccc(C(=O)Nc2cccc(N3CCO[C@@H](C)C3)n2)c(N2CCC3(CC2)CC3)c1 (single isomer, unassigned) [Example 9-17] | 24
20 | C[C@H]1CN(c2cccc(NC(=O)c3ccc(NS(=O)(=O)[C@@H](C)CO)cc3N3CCC4(CC3)CC4)n2)CCO1 (single isomer, unassigned) [Example 9-18] | 36
21 | O=C(Nc1cccc(OCCC(F)(F)F)n1)c1ccc(S(=O)(=O)NCCO)cc1N1CCC2(CC1)CC2 [Example 1, 4-(N-(2-Hydroxyethyl)sulfamoyl)-2-(6-azaspiro[2.5]octan-6-yl)-N-(6-(3,3,3-trifluoropropoxy)pyridin-2-yl)benzamide] | 12
22 | C[C@@H]1CN(c2cccc(NC(=O)c3ccc(S(=O)(=O)NCCO)cc3N3CCC4(CC3)CC4)n2)CCO1 [Example 1-1, (R)-4-(N-(2-Hydroxyethyl)sulfamoyl)-N-(6-(2-methylmorpholino)pyridin-2-yl)-2-(6-azaspiro[2.5]octan-6-yl)benzamide] | 16
23 | Cc1cc(NC(=O)c2ccc(S(=O)(=O)NCCO)cc2N2CCC3(CC2)CC3)nc(N2CCC(F)(F)CC2)c1 [Example 1-2, N-(6-(4,4-Difluoropiperidin-1-yl)-4-methylpyridin-2-yl)-4-(N-(2-hydroxyethyl)sulfamoyl)-2-(6-azaspiro[2.5]octan-6-yl)benzamide] | 32
24 | CNS(=O)(=O)c1ccc(C(=O)Nc2cccc(N3CCO[C@H](C)C3)n2)c(N2CCC3(CC2)CC3)c1 [Example 1-3, (R)-N-(6-(2-Methylmorpholino)pyridin-2-yl)-4-(N-methylsulfamoyl)-2-(6-azaspiro[2.5]octan-6-yl)benzamide] | 44

Continued, values first:

Row | IC50 [nM] | Structure (SMILES)
25 | 85 | C[C@@H]1CN(c2cccc(NC(=O)c3ccc(S(=N)(=O)C4CC4)cc3N3CCC4(CC3)CC4)n2)CCO1 (single isomer, unassigned) [Example 12-1]
26 | 43 | C[C@@H]1CN(c2cccc(NC(=O)c3ccc(S(=N)(=O)C4CC4)cc3N3CCC4(CC3)CC4)n2)CCO1 (single isomer, unassigned) [Example 12-2]
27 | 199 | C[C@@H]1CN(c2cccc(NC(=O)c3ccc([S@](=N)(=O)C(C)(C)C)cc3N3CCC4(CC3)CC4)n2)CCO1 (single isomer, unassigned) [Example 13-1]
28 | 182 | C[C@@H]1CN(c2cccc(NC(=O)c3ccc([S@@](=N)(=O)C(C)(C)C)cc3N3CCC4(CC3)CC4)n2)CCO1 (single isomer, unassigned) [Example 13-2]
29 | 418 | C[C@@H]1CN(c2cccc(NC(=O)c3ccc(S(C)(=N)=O)cc3N3CCC4(CC3)CC4)n2)CCO1 (single isomer, unassigned) [Example 13-3]
30 | 22 | N=S(=O)(c1ccc(C(=O)Nc2cccc(OCCC(F)(F)F)n2)c(N2CCC3(CC2)CC3)c1)C1CC1 (single isomer, unassigned) [Example 27-1, 2-(6-Azaspiro[2.5]octan-6-yl)-4-(S-cyclopropylsulfonimidoyl)-N-(6-(3,3,3-trifluoropropoxy)-2-pyridinyl)benzamide]
31 | 16 | N=[S@@](=O)(c1ccc(C(=O)Nc2cccc(OCCC(F)(F)F)n2)c(N2CCC3(CC2)CC3)c1)C1CC1 (single isomer, unassigned) [Example 27-2, 2-(6-Azaspiro[2.5]octan-6-yl)-4-(R-cyclopropylsulfonimidoyl)-N-(6-(3,3,3-trifluoropropoxy)-2-pyridinyl)benzamide]
32 | 71 | Cc1cc(NC(=O)c2ccc(S(=N)(=O)C3CC3)cc2N2CCC3(CC2)CC3)nc(N2CC(F)(F)C2)c1 (single isomer, unassigned) [Example 28-1, 2-(6-Azaspiro[2.5]octan-6-yl)-4-(S-cyclopropylsulfonimidoyl)-N-(6-(3,3-difluoro-1-azetidinyl)-4-methyl-2-pyridinyl)benzamide]
33 | 165 | Cc1cc(NC(=O)c2ccc(S(=N)(=O)C3CC3)cc2N2CCC3(CC2)CC3)nc(N2CCO[C@H](C)C2)c1 (single isomer, unassigned) [Example 29-1]
34 | 81 | Cc1cc(NC(=O)c2ccc([S@](=N)(=O)C3CC3)cc2N2CCC3(CC2)CC3)nc(N2CCC(F)(F)CC2)c1 (single isomer, unassigned) [Example 30-1, 2-(6-Azaspiro[2.5]octan-6-yl)-4-(S-cyclopropylsulfonimidoyl)-N-(6-(4,4-difluoro-1-piperidinyl)-4-methyl-2-pyridinyl)benzamide]
35 | 154 | C[C@@H]1CN(c2cccc(NC(=O)c3ccc(S(C)(=N)=O)cc3N3CCC4(CC3)CC4)n2)CCO1 (stereo in doubt) [Example 13-4, 2-(6-Azaspiro[2.5]octan-6-yl)-N-(6-((2R)-2-methyl-4-morpholinyl)-2-pyridinyl)-4-(R-methylsulfonimidoyl)benzamide]
36 | 37 | Cc1cc(NC(=O)c2ccc(S(=N)(=O)C3CC3)cc2N2CCC3(CC2)CC3)nc(N2CC(F)(F)C2)c1 (stereo in doubt) [Example 28-2, 2-(6-Azaspiro[2.5]octan-6-yl)-4-(R-cyclopropylsulfonimidoyl)-N-(6-(3,3-difluoro-1-azetidinyl)-4-methyl-2-pyridinyl)benzamide]
37 | 59 | Cc1cc(NC(=O)c2ccc(S(=N)(=O)C3CC3)cc2N2CCC3(CC2)CC3)nc(N2CCO[C@H](C)C2)c1 (stereo in doubt) [Example 29-2, 2-(6-Azaspiro[2.5]octan-6-yl)-4-(R-cyclopropylsulfonimidoyl)-N-(4-methyl-6-((2R)-2-methyl-4-morpholinyl)-2-pyridinyl)benzamide]
38 | 42 | Cc1cc(NC(=O)c2ccc(S(=N)(=O)C3CC3)cc2N2CCC3(CC2)CC3)nc(N2CCC(F)(F)CC2)c1 (stereo in doubt) [Example 30-2, 2-(6-Azaspiro[2.5]octan-6-yl)-4-(R-cyclopropylsulfonimidoyl)-N-(6-(4,4-difluoro-1-piperidinyl)-4-methyl-2-pyridinyl)benzamide]

From patent US12459932B2, “KIF18A inhibitors” (AMGEN INC., priority 2018, dated 2025)
